This is an account of results in ChEMBL document CHEMBL1221311, “The synthesis and structure-activity relationship of 4-benzimidazolyl-piperidinylcarbonyl-piperidine analogs as histamine H3 antagonists” (Bioorg Med Chem Lett, 2010).

As a reminder, the pKi is −log10 of the Ki, conventionally taken in molar units. The term inhibition denotes the percentage by which the read-out fell short of the control. The low end stands for little suppression, the high end for strong suppression. One may read the pIC50 as −log10 of the IC50, conventionally taken in molar units. Higher therefore signals a low IC50. One may read the ED50 as the dose that gives a 50% effect, or the effect in half of the subjects. As usually defined, the hepatocyte CLint is a measure of how fast metabolising enzymes remove a compound, apart from limits set by blood flow. As usually defined, the AUC is the area under the concentration-time curve, a measure of exposure. A low value points to less exposure.

pIC50, pKi: −log10 of the molar value. Bounds are passed on as bounds.

In data set [1] the target is Histamine H3 receptor (Cavia porcellus, UniProt Q9JI35). Put plainly: Displacement of [3H]Nalpha-methylhistamine from histamine H3 receptor in guinea pig brain. (Loss of bound radioactivity is the signal in a displacement assay; it reports binding, not function.)
Sequence of Histamine H3 receptor (Q9JI35 whole entry): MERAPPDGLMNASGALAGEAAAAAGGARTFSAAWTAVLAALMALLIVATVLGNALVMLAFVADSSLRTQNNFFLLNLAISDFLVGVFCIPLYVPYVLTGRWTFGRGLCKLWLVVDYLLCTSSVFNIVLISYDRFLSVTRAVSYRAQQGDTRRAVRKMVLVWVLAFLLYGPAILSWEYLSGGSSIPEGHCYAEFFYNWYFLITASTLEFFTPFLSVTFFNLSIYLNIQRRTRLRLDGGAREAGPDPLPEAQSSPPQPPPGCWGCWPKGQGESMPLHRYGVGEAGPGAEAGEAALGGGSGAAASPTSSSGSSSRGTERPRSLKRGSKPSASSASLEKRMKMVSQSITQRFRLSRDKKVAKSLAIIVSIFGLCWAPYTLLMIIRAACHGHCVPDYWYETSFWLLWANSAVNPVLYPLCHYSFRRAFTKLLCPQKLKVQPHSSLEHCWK
In data set [2] the target is Histamine H3 receptor (Cavia porcellus) (UniProt Q9JI35). Kind of data set: Displacement of [3H]Nalpha-methylhistamine from histamine H3 receptor in guinea pig brain at 1 uM.
Sequence of Histamine H3 receptor (Cavia porcellus) (Q9JI35 whole entry): as above
Data set [3] concerns the target Cytochrome P450 3A4 (Homo sapiens, UniProt P08684). Kind of data set: Inhibition of CYP3A4 in human liver microsomes. The class given is ADME, Microsome. (In general: Microsomes from liver hold many membrane-bound enzymes, among them those of drug oxidation.)
In data set [4] the target is Cytochrome P450 2D6 (Homo sapiens, UniProt P10635). Kind of data set: Inhibition of CYP2D6 in human liver microsomes. The format is ADME, Microsome.
Sequence of Cytochrome P450 2D6 (P10635 whole entry): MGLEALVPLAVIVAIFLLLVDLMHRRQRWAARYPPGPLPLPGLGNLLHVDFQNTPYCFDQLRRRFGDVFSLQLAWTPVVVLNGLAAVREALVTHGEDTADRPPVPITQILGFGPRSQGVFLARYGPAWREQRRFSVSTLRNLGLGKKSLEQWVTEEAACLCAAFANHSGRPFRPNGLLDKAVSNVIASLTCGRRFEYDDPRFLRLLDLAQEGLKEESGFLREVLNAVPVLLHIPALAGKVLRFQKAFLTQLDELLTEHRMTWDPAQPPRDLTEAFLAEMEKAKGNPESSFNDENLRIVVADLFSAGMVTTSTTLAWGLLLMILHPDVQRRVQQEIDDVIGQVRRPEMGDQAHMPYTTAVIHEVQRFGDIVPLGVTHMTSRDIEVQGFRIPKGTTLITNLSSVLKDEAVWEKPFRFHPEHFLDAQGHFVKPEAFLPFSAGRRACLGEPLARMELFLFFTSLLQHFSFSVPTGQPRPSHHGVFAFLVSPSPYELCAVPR
The test system of data set [5] is Cavia porcellus. Put plainly: Antihypertensive activity in po dosed guinea pig assessed as inhibition of (R)-alpha-methylhistamine-induced hypertension. The class given is functional.
Data set [6] is described as follows: Clearance in rat hepatocytes assessed per million cells. The format is ADME, cell-based, Liver, Hepatocyte.
The nature of data set [7]: Clearance in human hepatocytes assessed per million cells. The class given is ADME, cell-based, Liver, Hepatocyte.
Data set [8] has as its target hERG (KCNH2) (Homo sapiens, UniProt Q12809). Kind of data set: Inhibition of human ERG at 10 uM.
The target in data set [9] is Cytochrome P450 2C9 (Homo sapiens, UniProt P11712). Put plainly: Inhibition of CYP2C9 in human liver microsomes. The format is ADME, Microsome.
Sequence of Cytochrome P450 2C9 (P11712 whole entry): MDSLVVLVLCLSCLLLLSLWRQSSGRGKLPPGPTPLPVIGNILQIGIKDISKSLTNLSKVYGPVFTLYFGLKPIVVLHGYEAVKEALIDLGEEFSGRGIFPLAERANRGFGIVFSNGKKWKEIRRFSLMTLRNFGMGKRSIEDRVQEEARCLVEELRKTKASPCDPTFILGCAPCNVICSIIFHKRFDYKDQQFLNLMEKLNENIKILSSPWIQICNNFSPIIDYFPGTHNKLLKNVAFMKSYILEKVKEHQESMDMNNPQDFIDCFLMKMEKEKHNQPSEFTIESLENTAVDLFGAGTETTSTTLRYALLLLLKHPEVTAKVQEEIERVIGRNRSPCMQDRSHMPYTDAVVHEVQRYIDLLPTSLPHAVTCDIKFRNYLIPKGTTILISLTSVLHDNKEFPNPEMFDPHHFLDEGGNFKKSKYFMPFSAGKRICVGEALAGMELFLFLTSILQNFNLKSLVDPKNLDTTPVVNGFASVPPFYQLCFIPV
A short description of data set [10]: AUC in rat at 10 mg/kg, po. Set-up: dose 10 mg/kg, route oral. The class given is ADME, organism-based. The note with it: plasma.

Sequence of hERG (KCNH2) (Q12809 whole entry): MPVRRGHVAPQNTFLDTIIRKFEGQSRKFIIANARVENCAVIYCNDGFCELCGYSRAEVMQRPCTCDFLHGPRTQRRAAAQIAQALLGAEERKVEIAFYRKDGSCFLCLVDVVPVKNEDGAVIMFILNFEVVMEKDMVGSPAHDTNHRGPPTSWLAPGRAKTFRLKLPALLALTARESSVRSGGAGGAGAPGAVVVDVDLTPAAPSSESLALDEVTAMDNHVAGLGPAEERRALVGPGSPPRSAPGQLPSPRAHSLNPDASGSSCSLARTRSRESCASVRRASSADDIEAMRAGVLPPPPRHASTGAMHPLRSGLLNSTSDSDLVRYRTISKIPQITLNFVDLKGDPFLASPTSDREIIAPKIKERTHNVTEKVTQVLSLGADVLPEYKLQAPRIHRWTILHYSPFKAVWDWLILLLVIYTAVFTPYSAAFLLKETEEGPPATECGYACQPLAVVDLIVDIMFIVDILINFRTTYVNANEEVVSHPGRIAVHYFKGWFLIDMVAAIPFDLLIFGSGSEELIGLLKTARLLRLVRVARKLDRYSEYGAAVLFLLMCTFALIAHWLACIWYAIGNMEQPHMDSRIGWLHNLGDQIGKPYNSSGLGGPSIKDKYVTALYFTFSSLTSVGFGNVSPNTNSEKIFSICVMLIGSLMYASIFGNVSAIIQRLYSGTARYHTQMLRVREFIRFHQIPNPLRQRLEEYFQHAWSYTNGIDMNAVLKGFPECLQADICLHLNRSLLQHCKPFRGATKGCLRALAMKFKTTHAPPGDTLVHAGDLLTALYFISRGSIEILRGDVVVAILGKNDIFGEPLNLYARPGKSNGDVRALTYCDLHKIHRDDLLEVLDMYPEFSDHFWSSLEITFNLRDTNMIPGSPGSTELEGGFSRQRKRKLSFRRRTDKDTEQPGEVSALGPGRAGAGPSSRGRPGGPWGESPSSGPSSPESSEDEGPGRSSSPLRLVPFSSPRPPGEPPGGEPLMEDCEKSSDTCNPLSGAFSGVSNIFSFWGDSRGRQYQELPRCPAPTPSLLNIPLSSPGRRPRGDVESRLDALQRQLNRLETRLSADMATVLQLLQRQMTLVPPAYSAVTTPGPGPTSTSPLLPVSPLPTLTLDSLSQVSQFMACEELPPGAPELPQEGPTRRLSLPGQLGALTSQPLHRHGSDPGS
Sequence of Cytochrome P450 3A4 (P08684 whole entry): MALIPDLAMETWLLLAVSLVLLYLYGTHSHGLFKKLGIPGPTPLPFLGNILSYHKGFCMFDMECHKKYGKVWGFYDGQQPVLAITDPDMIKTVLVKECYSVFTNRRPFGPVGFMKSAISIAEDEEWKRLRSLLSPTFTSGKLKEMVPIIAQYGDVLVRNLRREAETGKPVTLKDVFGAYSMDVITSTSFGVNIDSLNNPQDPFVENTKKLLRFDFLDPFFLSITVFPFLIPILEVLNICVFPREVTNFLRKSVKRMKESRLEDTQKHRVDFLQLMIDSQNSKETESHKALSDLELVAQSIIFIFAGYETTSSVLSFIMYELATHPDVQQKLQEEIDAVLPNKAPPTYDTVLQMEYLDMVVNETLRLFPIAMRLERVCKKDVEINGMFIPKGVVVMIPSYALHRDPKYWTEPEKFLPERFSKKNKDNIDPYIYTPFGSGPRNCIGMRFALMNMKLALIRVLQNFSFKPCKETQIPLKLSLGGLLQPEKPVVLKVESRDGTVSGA

As for `O=C(C1CCN(Cc2cc[n+]([O-])cc2)CC1)N1CCC(n2c(=O)[nH]c3ccccc32)CC1`, the negative logarithm of the Ki (pKi) in [1] was 6.36.

On to `O=C(C1CCN(Cc2ccccn2)CC1)N1CCC(n2c(=O)[nH]c3ccccc32)CC1`, for which the inhibition in data set [2] worked out at 40%.

As for `CCOCCCn1c(=O)n(C2CCN(C(=O)C3CCN(Cc4ccncc4)CC3)CC2)c2ccccc21`, the pIC50 was 4.97 in [3] and less than 4.70 in [4]. In [1], the pKi is 9.10.

As for `COc1cccc(Cn2c(=O)n(C3CCN(C(=O)C4CCN(Cc5ccncc5)CC4)CC3)c3ccccc32)c1`, the pIC50 is 6.70 in [3] and 5.25 in data set [4]. In addition, the pKi in data set [1] is 9.52.

`O=C(C1CCN(Cc2ccncc2)CC1)N1CCC(n2c(=O)n(CCO)c3ccccc32)CC1`: the pIC50 in data set [3] is less than 4.52; in [4], less than 4.70. This compound gave a pKi in data set [1] of 9.02.

`O=C(C1CCN(Cc2ccncc2)CC1)N1CCN(c2ccccc2)CC1` had a negative-log Ki (pKi) in data set [1] of 7.40.

Compound `O=C(C1CCN(Cc2ccncc2)CC1)N1CCC(Cc2ccccc2)CC1` gave a pKi in data set [1] of 8.26.

With `O=C(c1ccccc1)C1CCN(C(=O)C2CCN(Cc3ccncc3)CC2)CC1`, the pKi in data set [1] was 7.77. Compared with the last compound, the pKi is 0.49 log units lower.

For the compound `O=C(C1CCN(Cc2ccncc2)CC1)N1CCC(n2c(=O)n(Cc3ccccc3Cl)c3ccccc32)CC1`, the pIC50 in data set [3] is 6.30; in data set [4], 5.17. The compound also had a pKi in [1] of 8.35.

Regarding `CC(C)Cn1c(=O)n(C2CCN(C(=O)C3CCN(Cc4ccncc4)CC3)CC2)c2ccccc21`, the negative logarithm of the IC50 (pIC50) is 5.82 in data set [3] and 5.72 in data set [4]. In [1], this compound gave a pKi of 9.40.

Regarding `Cn1cc(CN2CCC(C(=O)N3CCC(n4c(=O)[nH]c5ccccc54)CC3)CC2)c2ccccc21`, the inhibition in data set [2] was found to be 30%.

For `Cn1c(=O)n(C2CCN(C(=O)C3CCN(Cc4ccncc4)CC3)CC2)c2ccccc21`, the pIC50 in [3] is 5.12; in data set [4], less than 4.70. Further, the pKi in data set [1] was 8.37.

On to `O=C(C1CCN(Cc2ccncc2)CC1)N1CCC(n2c(=O)n(Cc3cccc(Cl)c3)c3ccccc32)CC1`, for which the negative logarithm of the IC50 (pIC50) in data set [3] was 6.52; in data set [4], 5.38. The pKi in [1] was 8.70.

In data set [1], `O=C(C1CCN(Cc2ccncc2)CC1)N1CCN(Cc2cccc(Cl)c2)CC1` showed a negative logarithm of the Ki (pKi) of 8.20.

Consider `O=C(C1CCN(Cc2ccncc2)CC1)N1CCC(n2c(=O)n(CCOc3ccccc3)c3ccccc32)CC1`, for which the pIC50 in [3] was 5.05; in [4] it was 4.70. Besides, the pKi in [1] is 8.70.

In [2], `Cn1ccc(CN2CCC(C(=O)N3CCC(n4c(=O)[nH]c5ccccc54)CC3)CC2)c1` registered an inhibition of 42%.

Take `CCOCCn1c(=O)n(C2CCN(C(=O)C3CCN(Cc4ccncc4)CC3)CC2)c2ccccc21`: the pIC50 in data set [3] is 4.87; in [4] it was less than 4.70. In data set [1], this compound showed a negative logarithm of the Ki (pKi) of 8.77.

For `COc1ccc(Cn2c(=O)n(C3CCN(C(=O)C4CCN(Cc5ccncc5)CC4)CC3)c3ccccc32)cc1`, the pIC50 in [3] is 6.40; in data set [4], 4.70. Besides, in [1], the negative logarithm of the Ki (pKi) was 9.60.

For the compound `O=C(C1CCN(Cc2ccncc2)CC1)N1CCN(Cc2ccccc2)CC1`, the pKi in data set [1] was 7.55.

Turning to `O=C(NCCc1ccccc1)c1cccc(CN2CCN(C(=O)C3CCN(Cc4ccncc4)CC3)CC2)c1`, the pKi in data set [1] was 7.57. The pKi values of the last two compounds are within 0.2 log units of each other.

Regarding `CN(C)CCn1c(=O)n(C2CCN(C(=O)C3CCN(Cc4ccncc4)CC3)CC2)c2ccccc21`, in data set [5], the ED50 was less than 0.3 mg/kg. The hepatocyte CLint in [6] and in data set [7] was less than 10 µL/min/1e6 cells each time. Moreover, the negative-log IC50 (pIC50) was less than 4.52 in [3], 4.98 in [4] and less than 4.70 in data set [9]. In data set [1], this compound gave a negative-log Ki (pKi) of 9.70. This compound showed an inhibition at 10 µM in data set [8] of less than 10%. The compound also displayed an exposure (AUC) in data set [10] of 0.24 µM·h.

For the compound `CC(c1ccncc1)N1CCC(C(=O)N2CCC(n3c(=O)[nH]c4ccccc43)CC2)CC1` (configuration not stated), in data set [1], the negative logarithm of the Ki (pKi) is 7.70.

As to `O=C(N1CCC(n2c(=O)[nH]c3ccccc32)CC1)N1CCN(Cc2ccncc2)CC1`, the pKi in data set [1] was 7.77.

For `O=C(C1CCN(Cc2ccncc2)CC1)N1CCC(n2c(=O)n(Cc3ccccc3)c3ccccc32)CC1`, the pIC50 was 6.40 in data set [3] and 5.04 in data set [4]. The pKi in data set [1] was 9.70.

Regarding `CN(C)CCCn1c(=O)n(C2CCN(C(=O)C3CCN(Cc4ccncc4)CC3)CC2)c2ccccc21`, the negative-log IC50 (pIC50) was less than 4.52 in data set [3], 5.80 in [4] and less than 4.70 in data set [9].

Take `CN1CCN(C(=O)C2CCN(Cc3ccncc3)CC2)CC1`: the pKi in data set [1] is 6.45.

Regarding `O=C(C1CCN(Cc2ccncc2)CC1)N1CCC(n2c(=O)n(CCN3CCOCC3)c3ccccc32)CC1`, in data set [5], the median effective dose (ED50) was less than 0.3 mg/kg. For the same compound, the intrinsic clearance (hepatocyte CLint) in data set [6] and in data set [7] was less than 10 µL/min/1e6 cells in each case. Further, the pIC50 is 4.52 in data set [3], less than 4.70 in [4] and less than 4.70 in [9]. This compound showed a pKi in data set [1] of 9.30. Further, the inhibition at 10 µM in [8] is less than 10%. The exposure (AUC) in [10] was found to be 0.24 µM·h.

In data set [1], `O=C(C1CCN(Cc2ccncc2)CC1)N1CCC2(CC1)C(=O)NCN2c1ccccc1` showed a negative-log Ki (pKi) of 7.70.

Take `O=C(C1CCN(Cc2ccnc3ccccc23)CC1)N1CCC(n2c(=O)[nH]c3ccccc32)CC1`: the pKi in [1] is 6.17.

With `O=C(c1ccncc1)N1CCC(C(=O)N2CCC(n3c(=O)[nH]c4ccccc43)CC2)CC1`, in data set [2], the inhibition came out at 11%.

In the case of `O=C(C1CCN(Cc2ccncc2)CC1)N1CCC(n2c(=O)n(Cc3ccc(Cl)cc3)c3ccccc32)CC1`, the values for the pIC50 in data set [3] and in data set [4] were 6.40 and 5.24, respectively. In data set [1], this compound showed a negative logarithm of the Ki (pKi) of 9.05.

In the case of `O=C(C1CCN(Cc2ccncc2)CC1)N1CCC(n2c(=O)n(CCN3CCCCC3)c3ccccc32)CC1`, the ED50 in data set [5] is less than 0.3 mg/kg. In addition, the intrinsic clearance (hepatocyte CLint) in data set [6] and in [7] was less than 10 µL/min/1e6 cells each time. Besides, the negative-log IC50 (pIC50) in data set [3] was 4.52; in data set [4] it was 5.43; in [9] it was less than 4.70. This compound had a negative logarithm of the Ki (pKi) in [1] of 9.82. This compound also showed an inhibition at 10 µM in data set [8] of less than 10%. This compound registered an AUC in data set [10] of 0.24 µM·h.

`O=C(C1CCN(Cc2cccnc2)CC1)N1CCC(n2c(=O)[nH]c3ccccc32)CC1` gave a negative logarithm of the Ki (pKi) in [1] of 6.76.

Compound `O=C(C1CCN(CCc2ccncc2)CC1)N1CCC(n2c(=O)[nH]c3ccccc32)CC1` had a pKi in [1] of 6.27.

In the case of `COCCCNC(=O)c1cccc(CN2CCN(C(=O)C3CCN(Cc4ccncc4)CC3)CC2)c1`, the pKi in [1] was 6.68.

Turning to `O=C(C1CCN(Cc2ccncc2)CC1)N1CCN(C2CCCCC2)CC1`, the negative-log Ki (pKi) in data set [1] is 7.85. Compared with the last compound, the pKi is 1.17 log units higher.

Compound `O=C(C1CCN(Cc2ccoc2)CC1)N1CCC(n2c(=O)[nH]c3ccccc32)CC1` had a pKi in data set [1] of 6.69.

Take `O=C(CC1CCN(Cc2ccncc2)CC1)N1CCC(n2c(=O)[nH]c3ccccc32)CC1`: the negative logarithm of the Ki (pKi) in [1] was 6.74.

With `O=C(C1CCN(Cc2ccncc2)CC1)N1CCC(O)(Cc2ccccc2)CC1`, the pKi in [1] is 7.52.

Regarding `O=c1[nH]c2ccccc2n1C1CCN(CC2CCN(Cc3ccncc3)CC2)CC1`, the negative logarithm of the Ki (pKi) in [1] was 7.62. The pKi values of the last two compounds are within 0.2 log units of each other.

In data set [1], `O=C(C1CCN(Cc2ccsc2)CC1)N1CCC(n2c(=O)[nH]c3ccccc32)CC1` showed a negative logarithm of the Ki (pKi) of 6.98.

In turn, `O=C(C1CCN(Cc2ccncc2Cl)CC1)N1CCC(n2c(=O)[nH]c3ccccc32)CC1` had a pKi in data set [1] of 6.65.

Take `CC(C)OCCn1c(=O)n(C2CCN(C(=O)C3CCN(Cc4ccncc4)CC3)CC2)c2ccccc21`: the pIC50 in data set [3] was 5.22; in [4], less than 4.70. In [1], this compound had a pKi of 9.19.

`O=C(C1CCN(Cc2ccncc2)CC1)N1CCC(n2c(=O)[nH]c3ccccc32)CC1`: the ED50 in data set [5] was less than 0.3 mg/kg. Besides, the hepatocyte CLint in data set [6] and in data set [7] was less than 10 µL/min/1e6 cells throughout. The pIC50 in [3] is 5.02; in [4], less than 4.70; in data set [9], less than 4.70. This compound also showed a pKi in data set [1] of 8.70. This compound displayed an inhibition at 10 µM in data set [8] of less than 10%. Besides, in data set [10], the exposure (AUC) came out at 0.24 µM·h.

As to `COCCn1c(=O)n(C2CCN(C(=O)C3CCN(Cc4ccncc4)CC3)CC2)c2ccccc21`, the negative-log IC50 (pIC50) was 4.96 in data set [3] and less than 4.70 in [4]. Further, the pKi in data set [1] is 8.70.
